According to ChEMBL document CHEMBL4229562, “Introduction of a Methyl Group Curbs Metabolism of Pyrido[3,4- d]pyrimidine Monopolar Spindle 1 (MPS1) Inhibitors and Enables the Discovery of the Phase 1 Clinical Candidate N2-(2-Ethoxy-4-(4-methyl-4 H-1,2,4-triazol-3-yl)phenyl)-6-methyl- N8-neopentylpyrido[3,4- d]pyrimidine-2,8-diamine …” (J Med Chem, 2018):
pIC50, pKi: −log10 of the molar value. Converted amounts (≈) assume the structure as drawn.

Columns and labels:
[1] = Intrinsic clearance in CD1 mouse liver microsomes assessed per mg protein at 1 uM preincubated for 10 mins followed NADPH/UDP-glucuronic acid addition and measured after 30 mins by LC-MS/MS analysis; format: ADME, microsome; settings: 0.5 h
[2] = Intrinsic clearance in human liver microsomes assessed per mg protein at 1 uM preincubated for 10 mins followed NADPH/UDP-glucuronic acid addition and measured after 30 mins by LC-MS/MS analysis; format: ADME, microsome; settings: 0.5 h
[3] = Solubility of the compound in PBS buffer at pH 7.4 by HPLC analysis; format: physicochemical
[4] = Lipophilicity, log P of the compound; format: physicochemical; settings: octanol/water
[5] = target: T1, Dual specificity protein kinase TTK (Homo sapiens, UniProt P33981)
T1 sequence (P33981 whole entry): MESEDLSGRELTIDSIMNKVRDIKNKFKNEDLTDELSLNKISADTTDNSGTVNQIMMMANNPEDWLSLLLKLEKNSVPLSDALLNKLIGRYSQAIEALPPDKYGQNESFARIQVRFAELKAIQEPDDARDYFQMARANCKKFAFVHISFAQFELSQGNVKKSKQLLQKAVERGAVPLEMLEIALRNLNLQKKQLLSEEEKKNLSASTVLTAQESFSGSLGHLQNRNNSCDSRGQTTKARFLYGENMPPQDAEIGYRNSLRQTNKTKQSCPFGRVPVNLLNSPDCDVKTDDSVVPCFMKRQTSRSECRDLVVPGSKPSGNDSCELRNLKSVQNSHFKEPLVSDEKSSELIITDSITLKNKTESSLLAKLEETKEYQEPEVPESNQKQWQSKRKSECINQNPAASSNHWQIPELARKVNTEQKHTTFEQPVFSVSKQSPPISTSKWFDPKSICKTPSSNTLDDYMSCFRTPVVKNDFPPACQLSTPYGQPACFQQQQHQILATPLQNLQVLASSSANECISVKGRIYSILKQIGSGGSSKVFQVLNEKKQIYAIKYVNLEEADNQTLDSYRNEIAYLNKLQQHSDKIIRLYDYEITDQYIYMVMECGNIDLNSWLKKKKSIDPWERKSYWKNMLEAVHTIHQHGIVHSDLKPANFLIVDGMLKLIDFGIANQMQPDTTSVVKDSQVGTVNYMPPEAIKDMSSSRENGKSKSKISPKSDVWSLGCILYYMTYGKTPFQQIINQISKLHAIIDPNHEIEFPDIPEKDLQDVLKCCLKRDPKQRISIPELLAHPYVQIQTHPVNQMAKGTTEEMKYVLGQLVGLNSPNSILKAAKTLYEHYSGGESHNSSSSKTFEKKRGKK
Description: Inhibition of full length human N-terminal 6xHis-tagged MPS1 expressed in baculovirus expression system using 5FAM-H236 peptide as substrate after 60 to 90 mins by caliper assay

[6] = target: CDK2/Cyclin A2 (Homo sapiens, UniProt P24941)
[7] = target: T1, Dual specificity protein kinase TTK; remark: listed apart in the source
Description: Inhibition of MPS1 autophosphorylation at Thr33/Ser37 in human HCT116 cells after 2 hrs by MSD assay

[8] = Drug level in human liver microsomes treated with 1 uM N2-(2-Methoxy-4-(4-methyl-4H-1,2,4-triazol-3-yl)phenyl)-6-methyl-N8-neopentylpyrido[3,4-d]pyrimidine-2,8-diamine assessed as compound formation preincubated for 10 mins followed NADPH/UDP-glucuronic acid addition and measured after 30 mins by LC-MS/MS analysis; format: ADME, microsome; settings: 0.5 h
[9] = test system: Mus musculus; test: Half life in mouse at 5 mg/kg, iv by ESI-LCMS/MS analysis; format: ADME, organism-based; settings: in vivo
[10] = test system: Rattus norvegicus; test: Half life in rat at 5 mg/kg, iv by ESI-LCMS/MS analysis; format: ADME, organism-based; settings: in vivo
[11] = Clearance in mouse at 5 mg/kg, iv by ESI-LCMS/MS analysis; format: ADME, organism-based; settings: in vivo
[12] = Clearance in rat at 5 mg/kg, iv by ESI-LCMS/MS analysis; format: ADME, organism-based; settings: in vivo
[13] = Cmax in rat at 5 mg/kg, po by ESI-LCMS/MS analysis; format: ADME, organism-based; design: dose 5 mg/kg, route oral; settings: in vivo
[14] = Cmax in mouse at 5 mg/kg, po by ESI-LCMS/MS analysis; format: ADME, organism-based; design: dose 5 mg/kg, route oral; settings: in vivo
[15] = AUClast in mouse at 5 mg/kg, po measured after 6 hrs by ESI-LCMS/MS analysis; format: ADME, organism-based; settings: in vivo
[16] = AUClast in rat at 5 mg/kg, po measured after 6 hrs by ESI-LCMS/MS analysis; format: ADME, organism-based; settings: in vivo
[17] = Protein binding in mouse plasma; format: ADME, cell-free
[18] = Volume of distribution at steady state in mouse at 5 mg/kg, iv by ESI-LCMS/MS analysis; format: ADME, organism-based; settings: in vivo, read-out: Vdss
[19] = Volume of distribution at steady state in rat at 5 mg/kg, iv by ESI-LCMS/MS analysis; format: ADME, organism-based; settings: in vivo, read-out: Vdss
[20] = test system: Mus musculus; test: Oral bioavailability in mouse at 5 mg/kg by ESI-LCMS/MS analysis; format: ADME, organism-based; settings: in vivo
[21] = test system: Rattus norvegicus; test: Oral bioavailability in rat at 5 mg/kg by ESI-LCMS/MS analysis; format: ADME, organism-based; settings: in vivo
[22] = Plasma concentration in doxycycline-inducible human DLD-1 cell xenografted mouse model at 25 mg/kg, po administered as single dose and measured after 24 hrs post dose by LC/MS analysis; format: ADME, organism-based
[23] = test system: Rattus norvegicus; test: Half life in rat at 1 mg/kg, iv by ESI-LCMS/MS analysis; format: ADME, organism-based; settings: in vivo
[24] = Volume of distribution at steady state in rat at 1 mg/kg, iv by ESI-LCMS/MS analysis; format: ADME, organism-based; settings: in vivo, read-out: Vdss
[25] = Drug metabolism in human liver microsomes assessed as 5-(3-methoxy-4-(8-(neopentylamino)pyrido[3,4-d]pyrimidin-2-ylamino)phenyl)-4-methyl-4H-1,2,4-triazol-3-ol formation at 1 uM preincubated for 10 mins followed NADPH/UDP-glucuronic acid addition and measured after 30 mins by LC-MS/MS analysis; format: ADME, microsome; settings: 0.5 h

Q: With CCOc1cc(-c2nnc(C)n2C)ccc1Nc1ncc2cc(C)nc(NCC(C)(C)C)c2n1 as the compound, how does the CLH [1] read?
A: Its CLH is 32.9 µL/min/mg.

Q: What about the CLH [2] of the same compound?
A: Its CLH is 20.4 µL/min/mg.

Q: And the solubility [3]?
A: Its solubility is 1.8 µM (≈ 0.829 µg/mL).

Q: What about the logP [4] of the same compound?
A: The logP was 4.49.

Q: What about the pIC50 [5] of the same compound?
A: The pIC50 was 7.92.

Q: And the pKi [5]?
A: The pKi was 9.92.

Q: And the pIC50 [6]?
A: The pIC50 was 6.03.

Q: And the pKi [6]?
A: The pKi was 6.33.

Q: And the pIC50 [7]?
A: The pIC50 was 7.48.

Q: With COc1cc(-c2cn(C)nc2C)ccc1Nc1ncc2ccnc(NCC(C)(C)C)c2n1 as the compound, how does the logP [4] read?
A: Its logP is 4.56.

Q: What about the pIC50 [5] of the same compound?
A: Its pIC50 is 5.60.

Q: And the pKi [5]?
A: Its pKi is 7.62.

Q: And the pIC50 [6]?
A: Its pIC50 is 5.55.

Q: And the pKi [6]?
A: The pKi was 5.85.

Q: What about the pIC50 [7] of the same compound?
A: The pIC50 was 6.64.

Q: Which results are given for COc1cc(-c2cnc(C)n2C)ccc1Nc1ncc2ccnc(NCC(C)(C)C)c2n1?
A: CLH [1]: 92.5 µL/min/mg; logP [4]: 4.27; pIC50 [5]: 8.07; pKi [5]: 10.08; pIC50 [6]: 7.07; pKi [6]: 7.37; pIC50 [7]: 7.36

Q: With COc1cc(-c2nncn2C)ccc1Nc1ncc2cc(C)nc(NC(O)C(C)(C)C)c2n1 (centres undefined) as the compound, how does the Drug uptake [8] read?
A: The Drug uptake was “Active”.

Q: With CCOc1cc(-c2nncn2C)ccc1Nc1ncc2cc(C)nc(N3CCC3(C)C)c2n1 as the compound, how does the logP [4] read?
A: The logP was 3.58.

Q: And the pIC50 [5]?
A: Its pIC50 is 6.40.

Q: What about the pKi [5] of the same compound?
A: The pKi was 8.40.

Q: What about the pIC50 [6] of the same compound?
A: The pIC50 was 4.59.

Q: What about the pKi [6] of the same compound?
A: Its pKi is 4.89.

Q: And the pIC50 [7]?
A: The pIC50 was 5.42.

Q: For CCOc1cc(-c2nncn2C)ccc1Nc1ncc2cc(C)nc(N3CC4(CCOCC4)C3)c2n1, which CLH [1] is on record?
A: Its CLH is 32.9 µL/min/mg.

Q: And the CLH [2]?
A: Its CLH is 9.4 µL/min/mg.

Q: And the solubility [3]?
A: The solubility was 56.2 µM (≈ 27.3 µg/mL).

Q: What about the t1/2 [9] of the same compound?
A: Its t1/2 is 0.66 h.

Q: What about the t1/2 [10] of the same compound?
A: The t1/2 was 1.5 h.

Q: And the clearance [11]?
A: The clearance was 1.36 L/h/kg.

Q: And the clearance [12]?
A: Its clearance is 0.455 L/h/kg.

Q: What about the Cmax [13] of the same compound?
A: Its Cmax is 1.18 µM.

Q: And the Cmax [14]?
A: Its Cmax is 3.08 µM.

Q: And the AUC(0-t) at 6 h [15]?
A: Its AUC(0-t) at 6 h is 4.78 µM·h.

Q: And the AUC(0-t) at 6 h [16]?
A: Its AUC(0-t) at 6 h is 5.16 µM·h.

Q: What about the PPB [17] of the same compound?
A: The PPB was 98.09%.

Q: What about the Vd [18] of the same compound?
A: The Vd was 1.21 L/kg.

Q: What about the Vd [19] of the same compound?
A: Its Vd is 0.89 L/kg.

Q: What about the F [20] of the same compound?
A: The F was 63%.

Q: What about the F [21] of the same compound?
A: Its F is 22%.

Q: And the concentration at 24 h [22]?
A: Its concentration at 24 h is under 0.01 µM.

Q: What about the logP [4] of the same compound?
A: The logP was 3.08.

Q: What about the pIC50 [5] of the same compound?
A: The pIC50 was 7.96.

Q: And the pKi [5]?
A: Its pKi is 9.96.

Q: And the pIC50 [6]?
A: The pIC50 was 5.60.

Q: And the pKi [6]?
A: The pKi was 5.89.

Q: What about the pIC50 [7] of the same compound?
A: Its pIC50 is 7.43.

Q: With CCOc1cc(-c2nncn2C)ccc1Nc1ncc2cc(C)nc(N[C@@H](C)C(C)(C)C)c2n1 as the compound, how does the CLH [1] read?
A: The CLH was 25.3 µL/min/mg.

Q: What about the CLH [2] of the same compound?
A: Its CLH is 15.2 µL/min/mg.

Q: What about the t1/2 [9] of the same compound?
A: The t1/2 was 3.47 h.

Q: And the t1/2 [23]?
A: Its t1/2 is 4.52 h.

Q: What about the clearance [11] of the same compound?
A: The clearance was 0.504 L/h/kg.

Q: What about the Cmax [13] of the same compound?
A: Its Cmax is 1.89 µM.

Q: And the Cmax [14]?
A: The Cmax was 2.92 µM.

Q: And the AUC(0-t) at 6 h [15]?
A: The AUC(0-t) at 6 h was 13.8 µM·h.

Q: And the PPB [17]?
A: The PPB was 99.91%.

Q: And the Vd [18]?
A: Its Vd is 2.19 L/kg.

Q: What about the Vd [24] of the same compound?
A: Its Vd is 1.88 L/kg.

Q: What about the F [20] of the same compound?
A: Its F is 86%.

Q: What about the F [21] of the same compound?
A: Its F is 92%.

Q: And the logP [4]?
A: Its logP is 4.61.

Q: What about the pIC50 [5] of the same compound?
A: The pIC50 was 8.33.

Q: And the pKi [5]?
A: The pKi was 10.33.

Q: And the pIC50 [6]?
A: The pIC50 was 6.82.

Q: And the pKi [6]?
A: The pKi was 7.11.

Q: What about the pIC50 [7] of the same compound?
A: The pIC50 was 7.64.

Q: Which results are given for COc1cc(-c2cnn(C)c2C)ccc1Nc1ncc2ccnc(NCC(C)(C)C)c2n1?
A: logP [4]: 4.42; pIC50 [5]: 7.10; pKi [5]: 9.11; pIC50 [6]: 5.52; pKi [6]: 5.82; pIC50 [7]: 7.02

Q: Which CLH [1] does the source give for CCOc1cc(-c2nnc(CCN(C)C)n2C)ccc1Nc1ncc2cc(C)nc(NCC(C)(C)C)c2n1 here?
A: The CLH was 27.7 µL/min/mg.

Q: And the CLH [2]?
A: Its CLH is 23 µL/min/mg.

Q: And the solubility [3]?
A: The solubility was 77.6 µM (≈ 40.2 µg/mL).

Q: And the logP [4]?
A: Its logP is 4.75.

Q: What about the pIC50 [5] of the same compound?
A: Its pIC50 is 7.92.

Q: And the pKi [5]?
A: The pKi was 9.92.

Q: What about the pIC50 [6] of the same compound?
A: Its pIC50 is 6.44.

Q: And the pKi [6]?
A: The pKi was 6.74.

Q: And the pIC50 [7]?
A: The pIC50 was 6.64.

Q: Which results are given for COc1cc(-c2nncn2C)ccc1Nc1ncc2ccnc(NCC(C)(C)C)c2n1?
A: CLH [1]: 81.5 µL/min/mg; CLH [2]: 92.1 µL/min/mg; logP [4]: 3.6; Drug metabolism [25]: Metabolite_Detected; pKi [5]: ≥ 10.15; pIC50 [6]: 7.80; pKi [6]: 8.10; pIC50 [7]: 8.46
